These results are taken from ChEMBL document CHEMBL1137431, “Discovery of small molecule integrin alphavbeta3 antagonists as novel anticancer agents” (J Med Chem, 2006).

Assay [1] has as its system HEY. Description: Cytotoxicity against human HEY cell line at 20 uM by MTT assay. It is filed as functional. On the technique in general: Tetrazolium assays rely on reduction of a dye to a coloured formazan, in cell work by metabolically active cells.
The subject of assay [2] is MDA-MB-435. Description: Cytotoxicity against human MDA-MB-435 cell line by MTT assay. It counts as functional, cell-based.
Assay [3] concerns MCF7. In words: Cytotoxicity against human MCF7 cell line by MTT assay. It counts as functional, cell-based.
For assay [4], the system named is HEY. Description: Cytotoxicity against human HEY cell line by MTT assay. It counts as functional, cell-based.
For the next assay, the target named is Integrin alpha-V/beta-3 (Homo sapiens, UniProt P05106+P06756). In words: Inhibition of [125I]echistatin binding to integrin alphaVbeta3 receptor. It counts as protein-complex assay.
In assay [5] the test system is MDA-MB-435. In words: Cytotoxicity against human MDA-MB-435 cell line at 20 uM by MTT assay. It counts as functional.
The subject of assay [6] is MCF7. In words: Cytotoxicity against human MCF7 cell line at 20 uM by MTT assay. It is filed as functional.
The test system of another assay is NIH3T3. In words: Cytotoxicity against mouse NIH3T3 cell line by MTT assay. It counts as functional, cell-based.
A further assay deals with NCI-H1975. Description: Cytotoxicity against human NCI-H1975 cell line by MTT assay. It is filed as functional, cell-based.

A value given as a limit tells only on which side of the number the result lay.

Integrin alpha-V/beta-3, sequence (P05106 27-788 limits assumed): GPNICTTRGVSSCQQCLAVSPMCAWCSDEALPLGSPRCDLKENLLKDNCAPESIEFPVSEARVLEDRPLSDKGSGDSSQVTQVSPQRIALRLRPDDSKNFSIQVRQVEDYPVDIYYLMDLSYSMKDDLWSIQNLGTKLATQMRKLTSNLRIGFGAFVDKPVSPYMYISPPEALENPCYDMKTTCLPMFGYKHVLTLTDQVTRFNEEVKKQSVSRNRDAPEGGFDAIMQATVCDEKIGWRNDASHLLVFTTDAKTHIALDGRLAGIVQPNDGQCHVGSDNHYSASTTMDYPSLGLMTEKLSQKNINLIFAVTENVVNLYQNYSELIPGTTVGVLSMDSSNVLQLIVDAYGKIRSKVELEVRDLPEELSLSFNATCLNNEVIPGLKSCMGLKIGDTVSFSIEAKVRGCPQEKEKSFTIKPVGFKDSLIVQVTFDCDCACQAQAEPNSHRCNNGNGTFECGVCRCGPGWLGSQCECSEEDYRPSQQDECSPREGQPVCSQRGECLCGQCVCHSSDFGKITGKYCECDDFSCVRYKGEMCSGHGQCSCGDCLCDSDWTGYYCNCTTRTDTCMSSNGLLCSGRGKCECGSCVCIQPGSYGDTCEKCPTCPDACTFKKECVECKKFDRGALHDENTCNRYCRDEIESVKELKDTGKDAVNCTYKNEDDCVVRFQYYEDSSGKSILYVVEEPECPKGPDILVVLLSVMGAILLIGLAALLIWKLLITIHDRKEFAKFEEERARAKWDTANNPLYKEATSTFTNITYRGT
Integrin alpha-V/beta-3, sequence (P06756 31-889 limits assumed): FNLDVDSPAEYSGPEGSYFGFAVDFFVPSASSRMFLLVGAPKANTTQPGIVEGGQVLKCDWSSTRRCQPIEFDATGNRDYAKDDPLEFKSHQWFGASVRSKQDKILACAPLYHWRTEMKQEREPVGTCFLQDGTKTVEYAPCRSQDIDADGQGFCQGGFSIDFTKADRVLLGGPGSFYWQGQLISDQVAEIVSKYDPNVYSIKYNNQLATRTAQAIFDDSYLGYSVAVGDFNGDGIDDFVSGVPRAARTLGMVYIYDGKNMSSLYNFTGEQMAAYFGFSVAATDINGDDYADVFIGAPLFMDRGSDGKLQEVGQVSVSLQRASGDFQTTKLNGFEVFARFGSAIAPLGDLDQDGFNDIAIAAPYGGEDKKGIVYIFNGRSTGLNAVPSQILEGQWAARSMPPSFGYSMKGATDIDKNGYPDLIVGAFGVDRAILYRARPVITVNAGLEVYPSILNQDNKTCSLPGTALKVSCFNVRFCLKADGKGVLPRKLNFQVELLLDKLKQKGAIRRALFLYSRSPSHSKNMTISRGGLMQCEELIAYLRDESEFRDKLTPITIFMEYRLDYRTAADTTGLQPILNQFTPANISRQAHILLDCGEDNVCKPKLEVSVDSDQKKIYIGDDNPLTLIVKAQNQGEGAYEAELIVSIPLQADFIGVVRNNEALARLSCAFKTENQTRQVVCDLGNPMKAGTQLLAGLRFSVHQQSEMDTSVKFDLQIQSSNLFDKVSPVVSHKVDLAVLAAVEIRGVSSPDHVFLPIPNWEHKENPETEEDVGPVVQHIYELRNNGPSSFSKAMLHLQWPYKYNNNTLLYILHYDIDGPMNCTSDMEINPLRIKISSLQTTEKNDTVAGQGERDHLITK
Integrin alpha-V/beta-3, sequence (P06756 891-1048 limits assumed): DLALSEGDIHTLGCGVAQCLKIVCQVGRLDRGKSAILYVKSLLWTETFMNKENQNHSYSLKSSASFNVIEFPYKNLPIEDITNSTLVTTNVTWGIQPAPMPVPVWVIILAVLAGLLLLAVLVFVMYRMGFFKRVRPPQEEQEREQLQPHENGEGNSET

The inhibition is the change of the read-out against control, counted positive when it falls. Take `Nc1nc(=O)c2cc(CSc3ccc(C(=O)NC(CCC(=O)O)C(=O)O)cc3)ccc2[nH]1` (configuration not stated): the inhibition at 20 µM with HEY [1] was found to be 0%.

`Nc1nc(O)c2cc(COc3ccc(C(=O)NC(CCC(=O)O)C(=O)O)cc3)ccc2n1` (configuration not stated): the inhibition at 20 µM with HEY [1] was found to be 6%.

Take `COc1cc(/C=N/Nc2nc(Nc3ccc(F)cc3)nc(N3CCCCC3)n2)ccc1OCC(=O)O`: the inhibition at 20 µM in the assay with HEY [1] turned out to be 0%.

Consider `CCn1cc(C(=O)O)c(=O)c2cc(F)c(N3CCN(S(=O)(=O)c4ccc(NC(C)=O)cc4)CC3)cc21`, for which the inhibition at 20 µM in the assay with HEY [1] came out at 0%.

As a reminder, the IC50 is the concentration needed to halve the response being measured. Read a low IC50 as higher potency. With `O=C(O)c1ccc(-c2ccc(/C=N/Nc3nc(Nc4ccccc4)nc(Nc4ccccc4)n3)o2)cc1`, the IC50 in the assay with MDA-MB-435 [2] is 18 µM; in the assay on MCF7 [3], > 20 µM; in the assay with HEY [4], 21 µM.

For `CC(=O)Nc1nc(O)c2nc(CCN(C)c3ccc(C(=O)O)cc3)cnc2n1`, testing at 20 µM in the assay on HEY [1] gave an inhibition of 0%.

The compound `Cc1ccnc(NS(=O)(=O)c2ccc(NC(=O)c3ccc(C(=O)O)cc3C(=O)O)cc2)n1` came in with an inhibition at 20 µM in the assay on HEY [1] of 0%.

In the assay with HEY [1], `CC1=NN(c2ccc(C(=O)O)cc2)C(=O)/C1=C/c1ccc(-c2ccc(S(N)(=O)=O)cc2)o1` had an inhibition at 20 µM of 6%. Moreover, the IC50 in the assay on MDA-MB-435 [2] is > 20 µM; with MCF7 [3], 19 µM; in the assay on HEY [4], > 20 µM.

As to `O=C(CCCCn1cnc2c(S)ncnc21)Nc1ccc(C(=O)O)c(O)c1`, 20 µM produced 0% inhibition with HEY [1].

As for `CCOc1cc(/C=C2/S/C(=N\c3ccc(C(=O)O)cc3)N(C)C2=O)ccc1O`, the IC50 at Integrin alpha-V/beta-3 was 0.24 µM; in the assay on MDA-MB-435 [2], 0.34 µM; in the assay with MCF7 [3], > 20 µM; in the assay with NIH3T3, > 20 µM; in the assay on HEY [4], 13 µM; with NCI-H1975, > 20 µM. In addition, the inhibition at 20 µM in the assay with MDA-MB-435 [5] came out at 94%; with MCF7 [6] it was 37%; in the assay on HEY [1], 51%.

For `CN(C)c1ccc(/C=C2\SC(=Nc3ccc(O)cc3)NC2=O)cc1`, the IC50 on Integrin alpha-V/beta-3 was > 1 µM; in the assay on MDA-MB-435 [2] it was 2.8 µM; in the assay on MCF7 [3], > 20 µM; in the assay on HEY [4], > 20 µM.

For `Cc1nnc(N/N=C/c2ccc(OCC(=O)O)cc2)nc1O`, the inhibition at 20 µM with HEY [1] turned out to be 0%.

In the case of `COc1cc(O)c(Cl)cc1/C=C1\S/C(=N/c2cccc(C(=O)O)c2)N(C)C1=O`, the inhibition at 20 µM was found to be 3% in the assay with MDA-MB-435 [5], 9% in the assay on MCF7 [6] and 0% with HEY [1].

Take `CCOc1ccc(/N=C2/S/C(=C\c3ccc(N(C)C)cc3)C(=O)N2CC)cc1`: the IC50 in the assay on MDA-MB-435 [2], in the assay with MCF7 [3], in the assay on NIH3T3, in the assay on HEY [4] and with NCI-H1975 was > 20 µM in each case.

In the assay on HEY [1], `Cc1ccc(NC(=O)CN2C(=O)N/C(=C\c3cccn3-c3cccc(C(=O)O)c3)C2=O)cc1` came in with an inhibition at 20 µM of 5%. Besides, the IC50 with MDA-MB-435 [2], in the assay on MCF7 [3], in the assay on NIH3T3, in the assay on HEY [4] and in the assay with NCI-H1975 was > 20 µM throughout.

With `CCOc1cc(/C=N/Nc2nc(Nc3ccccc3)nc(N3CCCCC3)n2)ccc1OCC(=O)O`, the inhibition at 20 µM in the assay with HEY [1] was found to be 0%.

Compound `CC1=C(C#N)c2nc(N)c(C#N)c(C)c2/C1=C/c1ccc(-c2ccc(Cl)c(C(=O)O)c2)o1` had an inhibition at 20 µM in the assay on HEY [1] of 14%.

Compound `Nc1ccc(C(=O)Nc2nc3ccc(C(=O)O)cc3s2)cc1` came in with an inhibition at 20 µM with HEY [1] of 0%.

Turning to `O=C(O)c1cccc(-c2ccc(/C=N/Nc3nc4nonc4nc3Nc3ccc(F)cc3)o2)c1`, the IC50 was > 1 µM at Integrin alpha-V/beta-3; 8 µM with MDA-MB-435 [2]; 19 µM in the assay on MCF7 [3]; 13 µM with NIH3T3; 7 µM in the assay on HEY [4]; > 20 µM in the assay on NCI-H1975. The compound also had an inhibition at 20 µM in the assay on HEY [1] of 90%.

As to `CS(=O)(=O)Nc1ccc(C2=NN(C(=O)CCCC(=O)O)C(c3ccco3)C2)cc1` (configuration not stated), the IC50 in the assay with MDA-MB-435 [2], in the assay with MCF7 [3], with NIH3T3, with HEY [4] and in the assay with NCI-H1975 was > 20 µM each time.

In the assay on HEY [1], `Nc1nc(O)c2nc3c(nc2n1)C(=O)N(c1ccc(C(=O)NC(CCC(=O)O)C(=O)O)cc1)C3` (configuration not stated) showed an inhibition at 20 µM of 0%.

`O=C(CSc1nnn(-c2ccc(O)cc2)n1)NCc1cccc(C(=O)O)c1`: the inhibition at 20 µM is 9% in the assay on MDA-MB-435 [5], 34% in the assay on MCF7 [6] and 0% in the assay with HEY [1].

Take `COc1cc(Cl)c(/C=C2\S/C(=N/c3cccc(C(=O)O)c3)N(C)C2=O)cc1OC`: the inhibition at 20 µM in the assay on HEY [1] was 0%. Besides, the IC50 in the assay with MDA-MB-435 [2], in the assay with MCF7 [3], in the assay with NIH3T3, in the assay on HEY [4] and with NCI-H1975 was > 20 µM in each case.

With `CC1=NN(c2ccc(S(N)(=O)=O)cc2)C(=O)/C1=C\c1ccc(-c2ccccc2C(=O)O)o1`, the inhibition at 20 µM in the assay on MDA-MB-435 [5] was 24%; in the assay on MCF7 [6] it was 20%; in the assay with HEY [1], 5%.

In the assay with HEY [1], `O=C(O)COc1ccc(/C=N/NC(=O)c2ccc(O)cc2)cc1OCC(=O)O` came in with an inhibition at 20 µM of 9%.

With `COc1cc(/C=C2/NC(=O)N(CC(=O)Nc3ccc(C)cc3)C2=O)ccc1OCc1cccc(C(=O)O)c1`, the inhibition at 20 µM in the assay with MDA-MB-435 [5] came out at 26%; in the assay with MCF7 [6], 43%; in the assay on HEY [1] it was 0%.

In the case of `CN(Cc1cnc2nc(N)nc(N)c2n1)c1ccc(C(=O)NC(CCCCN)C(=O)O)cc1` (configuration not stated), the inhibition at 20 µM in the assay on HEY [1] was determined as 0%.

Consider `COc1cc(OC)c(/C=C2\S/C(=N/c3ccc(C(=O)O)cc3)N(C)C2=O)cc1Br`, for which, in the assay with HEY [1], the inhibition at 20 µM was 4%.

Take `Nc1nc(O)c2nc(CCCNc3ccc(C(=O)NC(CCC(=O)O)C(=O)O)cc3)cnc2n1` (configuration not stated): the inhibition at 20 µM in the assay on HEY [1] worked out at 0%. In addition, the IC50 in the assay with MDA-MB-435 [2], with MCF7 [3], in the assay with NIH3T3, in the assay on HEY [4] and in the assay on NCI-H1975 was > 20 µM throughout.
